The text below walks through data of BindingDB's records for doi:10.1016/j.bmcl.2009.01.090 (Gsk, 2009).

pIC50: −log10 of the molar value. Some results are limits rather than exact numbers.

The assay concerns the target T1, Gag-Pol polyprotein [1148-1435] (Human immunodeficiency virus 1, UniProt P04585).
T1 construct: 1148-1435
Description: HIV Integrase Strand Transfer Scintillation Proximity Assay (SPA). The note with it: pH 7.2; 37 °C. How it is done:
Purified recombinant integrase was first combined in a complex with biotinylated donor DNA- streptavidin-coated SPA beads. The complex was preincubated with the test compound, and strand transfer was initiated with a radiolabeled target DNA substrate. After incubation, the incorporated radioactivity was read in a Wallac MicroBeta scintillation plate reader using a counting protocol that corrected for optical cross talk between wells.
By pIC50 is commonly meant the IC50 on a negative log10 scale, so that one unit is a factor of ten. `O=S1(=O)CCCCN1c1nc(-c2noc(Cc3ccc(F)cc3)n2)c(O)c2ncccc12` [2-(7-{5-[(4-fluorophenyl)methyl]-1,2,4-oxadiazol-3-yl}-8-hydroxy-1,6-naphthyridin-5-yl)-1,2-thiazinane-1,1-dione] showed a pIC50 of less than 4.00.
With `O=C(NCc1ccc(F)cc1)c1nc(N2CCCCS2(=O)=O)c2cccnc2c1O` [5-(1,1-dioxo-1,2-thiazinan-2-yl)-N-[(4-fluorophenyl)methyl]-8-hydroxy-1,6-naphthyridine-7-carboxamide], the pIC50 was 7.89.
In the case of `Oc1c(-c2noc(-c3ccccc3)n2)ncc2cccnc12` [7-(5-phenyl-1,2,4-oxadiazol-3-yl)-1,6-naphthyridin-8-ol] it was less than 4.00.
In the case of `Cn1nc(Cc2ccc(F)cc2)nc1-c1ncc2cccnc2c1O` [7-{3-[(4-fluorophenyl)methyl]-1-methyl-1H-1,2,4-triazol-5-yl}-1,6-naphthyridin-8-ol] it was less than 3.30.
